Measured values from PubChem BioAssay (NCI).
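Results reflect a 48-hour exposure of cells in 96-well plates to compound at five concentrations. Definition used: TGI = concentration required for complete inhibition of growth.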

Columns and labels:
Experiment in all cases: growth of human tumour cells (NCI), 48 h
KM12 colon = test system: KM12 colon
K-562 leukemia = test system: K-562 leukemia
HL-60(TB) leukemia = test system: HL-60(TB) leukemia
UACC-257 melanoma = test system: UACC-257 melanoma
MCF7 breast = test system: MCF7 breast
SN12C renal = test system: SN12C renal
OVCAR-5 ovarian = test system: OVCAR-5 ovarian
PC-3 prostate = test system: PC-3 prostate
CAKI-1 renal = test system: CAKI-1 renal
HT29 colon = test system: HT29 colon
OVCAR-4 ovarian = test system: OVCAR-4 ovarian
HCT-116 colon = test system: HCT-116 colon
OVCAR-8 ovarian = test system: OVCAR-8 ovarian
NCI-H226 lung = test system: NCI-H226 lung
SK-MEL-2 melanoma = test system: SK-MEL-2 melanoma
SF-539 CNS = test system: SF-539 CNS
EKVX NSCLC = test system: EKVX NSCLC
SF-295 CNS = test system: SF-295 CNS
HCT-15 colon = test system: HCT-15 colon
M14 melanoma = test system: M14 melanoma
NCI-H460 lung = test system: NCI-H460 lung
HCC-2998 colon = test system: HCC-2998 colon
CCRF-CEM leukemia = test system: CCRF-CEM leukemia
SF-268 CNS = test system: SF-268 CNS
SW-620 colon = test system: SW-620 colon
COLO 205 colon = test system: COLO 205 colon
A549 NSCLC = test system: A549 NSCLC
SNB-19 CNS = test system: SNB-19 CNS
MDA-MB-435 = test system: MDA-MB-435
DU-145 prostate = test system: DU-145 prostate
ACHN renal = test system: ACHN renal
MALME-3M melanoma = test system: MALME-3M melanoma
T-47D breast = test system: T-47D breast
MDA-MB-231 breast = test system: MDA-MB-231 breast
RPMI-8226 leukemia = test system: RPMI-8226 leukemia
HOP-92 NSCLC = test system: HOP-92 NSCLC
MOLT-4 leukemia = test system: MOLT-4 leukemia
SR leukemia = test system: SR leukemia
IGROV1 ovarian = test system: IGROV1 ovarian
786-0 renal = test system: 786-0 renal
SNB-75 CNS = test system: SNB-75 CNS
UO-31 renal = test system: UO-31 renal
NCI/ADR-RES ovarian = test system: NCI/ADR-RES ovarian
LOX IMVI melanoma = test system: LOX IMVI melanoma
U251 CNS = test system: U251 CNS
OVCAR-3 ovarian = test system: OVCAR-3 ovarian
SK-MEL-28 melanoma = test system: SK-MEL-28 melanoma
TK-10 renal = test system: TK-10 renal
MDA-N = test system: MDA-N
SK-MEL-5 melanoma = test system: SK-MEL-5 melanoma
NCI-H23 lung = test system: NCI-H23 lung
HOP-62 NSCLC = test system: HOP-62 NSCLC
HS 578T breast = test system: HS 578T breast
NCI-H522 lung = test system: NCI-H522 lung
SK-OV-3 ovarian = test system: SK-OV-3 ovarian
UACC-62 melanoma = test system: UACC-62 melanoma
A498 renal = test system: A498 renal

Measured: TGI

Oc1cc(O)c2c(c1)O[C@H](c1ccc(O)c(O)c1)[C@@H](O)C2
not listed: SK-OV-3 ovarian | UACC-62 melanoma | A498 renal
> 100 µM: all other assays above

CCOC(=O)Cc1c(C)c2ccc(OC(C)=O)c(OC(C)=O)c2oc1=O
71.9 µM: K-562 leukemia
44.3 µM: IGROV1 ovarian
64.4 µM: SR leukemia
51.1 µM: UACC-257 melanoma
28.5 µM: CCRF-CEM leukemia
91.3 µM: HT29 colon
94.3 µM: NCI-H226 lung
71.3 µM: HOP-92 NSCLC
58.4 µM: NCI/ADR-RES ovarian
88.6 µM: SNB-75 CNS
73.9 µM: LOX IMVI melanoma
71.7 µM: NCI-H23 lung
57.3 µM: OVCAR-8 ovarian
55.8 µM: UO-31 renal
96.1 µM: SF-268 CNS
64 µM: OVCAR-4 ovarian
65.2 µM: TK-10 renal
90 µM: UACC-62 melanoma
77.1 µM: MCF7 breast
not listed: HL-60(TB) leukemia | CAKI-1 renal | SF-539 CNS | NCI-H460 lung | HCC-2998 colon | T-47D breast | NCI-H522 lung
> 100 µM: all other assays above
